Patent US7265152B2 (ViroPharma Incorporated, priority 2002, dated 2007)
Read-outs that look alike come from different tables or passages of the source.

What was measured:
[1] = molecular target: T1, HCV NS5B (Hepatitis C virus genotype 1b, UniProt Q9WMX2); assay: Inhibition of viral RNA-dependent RNA polymerase (RdRp), in vitro biochemical assay; parameters: species or system HCV genotype 1b virus (BB7); settings: HCV NS5B RdRp, BB7, read-out: HCV pol-BB7 IC50
T1 construct: fusion protein, of which the carboxyl terminal 21 amino acids were removed to enhance its solubility; His tag (GSHHHHHH); made in house; host or cells: E. coli
Method in brief: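 Purified recombinant NS5B from a genotype 1b consensus (BB7), His-tagged, E. coli-expressed, with the C-terminal 21 residues deleted. Inhibition of RdRp activity in vitro was measured, and IC50 is the concentration giving 50% inhibition.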

[2] = test system: HCV replicon (BB7 sequence) in Huh-7-Clone A cells; assay: HCV replicon assay: ELISA of NS5A protein in replicon-containing cells (Inhibition of Viral RNA Replication); type: cell-based; settings: Hepatitis C virus; HCV replicon assay; ranges of EC50; read-out: Replicon
Method in brief: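 Huh-7-Clone A cells carrying subgenomic BB7 HCV replicon (G418-selectable) incubated 72 h with compound. NS5A protein quantified by cell ELISA: glutaraldehyde fixation, anti-NS5A monoclonal plus HRP secondary, TMB read at OD 650 nm. EC50 derived from 8-point serial dilution dose curve.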

SMILES | IC50 ([1]; class symbols A-D) [nM] | EC50 [2] [nM] | IC50 ([1]; activity class) [nM]
CNC(=O)c1c(-c2ccc(F)cc2)oc2cc(N(CC(F)(F)F)S(C)(=O)=O)c(OC)cc12 [Example 308, 2-(4-Fluoro-phenyl)-6-[methanesulfonyl-(2,2,2-trifluoro-ethyl)-amino]-5-methoxy-benzofuran-3-carboxylic acid methylamide] | ≤ 500 | < 1000 | –
CNC(=O)c1c(-c2ccc(F)cc2)oc2cc(C3CCCN3S(C)(=O)=O)c(OC)cc12 (centres unmarked) [Example 309, 2-(4-Fluoro-phenyl)-6-(1-methanesulfonyl-pyrrolidin-2-yl)-5-methoxy-benzofuran-3-carboxylic acid methylamide] | ≤ 500 | < 1000 | –
CNC(=O)c1c(-c2ccc(F)cc2)oc2cc(-c3c(C4CC4)noc3COC)c(OC)cc12 [Example 310, 6-(3-Cyclopropyl-5-methoxymethyl-isoxazol-4-yl)-2-(4-fluoro-phenyl)-5-methoxy-benzofuran-3-carboxylic acid methylamide] | ≤ 500 | < 1000 | –
CNC(=O)c1c(-c2ccc(F)cc2)oc2cc(N(C)S(C)(=O)=O)c(OCc3ccc(C(=O)O)cc3)cc12 [Example 311, 4-[2-(4-Fluoro-phenyl)-6-(methanesulfonyl-methyl-amino)-3-methylcarbamoyl-benzofuran-5-yloxymethyl]-benzoic acid] | ≤ 500 | < 10000 | –
CNC(=O)c1c(-c2ccc(F)cc2)oc2cc(N(C)S(C)(=O)=O)c(OCc3cccc(C(=O)O)c3)cc12 [Example 312, 3-[2-(4-Fluoro-phenyl)-6-(methanesulfonyl-methyl-amino)-3-methylcarbamoyl-benzofuran-5-yloxymethyl]-benzoic acid] | ≤ 500 | < 1000 | –
CNC(=O)c1c(-c2ccc(F)cc2)oc2cc(-c3cc(COC)on3)c(OC)cc12 [Example 313, 2-(4-Fluoro-phenyl)-5-methoxy-6-(5-methoxymethyl-isoxazol-3-yl)-benzofuran-3-carboxylic acid methylamide] | ≤ 500 | < 1000 | –
CNC(=O)c1c(-c2ccc(F)cc2)oc2cc(-c3c(C)noc3C)c(O)cc12 [Example 314, 6-(3,5-Dimethyl-isoxazol-4-yl)-2-(4-fluoro-phenyl)-5-hydroxy-benzofuran-3-carboxylic acid methylamide] | ≤ 500 | < 1000 | –
CNC(=O)c1c(-c2ccc(F)cc2)oc2cc(C3CNC(=O)C3)c(OC)cc12 (centres unmarked) [Example 315, 2-(4-Fluoro-phenyl)-5-methoxy-6-(5-oxo-pyrrolidin-3-yl)-benzofuran-3-carboxylic acid methylamide] | ≤ 500 | < 10000 | –
CNC(=O)c1c(-c2ccc(F)cc2)oc2cc(N(CCOC(F)(F)F)S(C)(=O)=O)c(OC)cc12 [Example 316, 2-(4-Fluoro-phenyl)-6-[methanesulfonyl-(2-trifluoromethoxy-ethyl)-amino]-5-methoxy-benzofuran-3-carboxylic acid methylamide] | 500 to 5000 | < 1000 | –
CNC(=O)c1c(-c2ccc(F)cc2)oc2cc(-c3cc[nH]c3)c(OC)cc12 [Example 317, 2-(4-Fluoro-phenyl)-5-methoxy-6-(1H-pyrrol-3-yl)-benzofuran-3-carboxylic acid methylamide] | 5000 to 30000 | < 1000 | –
CCOc1cc(F)ccc1-c1oc2cc(-c3c(C)noc3C)c(OC)cc2c1C(=O)NC [Example 318, 6-(3,5-Dimethyl-isoxazol-4-yl)-2-(2-ethoxy-4-fluoro-phenyl)-5-methoxy-benzofuran-3-carboxylic acid methylamide] | ≤ 500 | > 30000 | –
CNC(=O)c1c(-c2ccc(F)cc2)oc2cc(N(C)S(C)(=O)=O)c(OCc3cscn3)cc12 [Example 319, 2-(4-Fluoro-phenyl)-6-(methanesulfonyl-methyl-amino)-5-(thiazol-4-ylmethoxy)-benzofuran-3-carboxylic acid methylamide] | 500 to 5000 | < 1000 | –
CNC(=O)c1c(-c2ccc(F)cc2)oc2cc(N(C)S(C)(=O)=O)c(OCc3csc(C)n3)cc12 [Example 320, 2-(4-Fluoro-phenyl)-6-(methanesulfonyl-methyl-amino)-5-(2-methyl-thiazol-4-ylmethoxy)-benzofuran-3-carboxylic acid methylamide] | ≤ 500 | < 1000 | –
CNC(=O)c1c(-c2ccc(F)cc2)oc2cc(N(C)S(C)(=O)=O)c(Oc3nc(CCl)ns3)cc12 [Example 321, 5-(3-Chloromethyl-[1,2,4]thiadiazol-5-yloxy)-2-(4-fluoro-phenyl)-6-(methanesulfonyl-methyl-amino)-benzofuran-3-carboxylic acid methylamide] | ≤ 500 | < 1000 | –
CNC(=O)c1c(-c2ccc(F)cc2)oc2cc(N(CC(O)c3ccc(F)cc3)S(C)(=O)=O)c(OC(C)C)cc12 (centres unmarked) [Example 322, 2-(4-Fluoro-phenyl)-6-{[2-(4-fluoro-phenyl)-2-hydroxy-ethyl]-methanesulfonyl-amino}-5-isopropoxy-benzofuran-3-carboxylic acid methylamide] | ≤ 500 | < 1000 | –
CNC(=O)c1c(-c2ccc(F)cc2)oc2cc(-c3ncnn3C)c(OC)cc12 [Example 323, 2-(4-Fluoro-phenyl)-5-methoxy-6-(2-methyl-2H-[1,2,4]triazol-3-yl)-benzofuran-3-carboxylic acid methylamide] | ≤ 500 | < 1000 | –
CNC(=O)c1c(-c2ccc(F)cc2)oc2cc(N(C)S(C)(=O)=O)c(OCc3c(C)noc3C)cc12 [Example 324, 5-(3,5-Dimethyl-isoxazol-4-ylmethoxy)-2-(4-fluoro-phenyl)-6-(methanesulfonyl-methyl-amino)-benzofuran-3-carboxylic acid methylamide] | ≤ 500 | < 1000 | –
CNC(=O)c1c(-c2ccc(F)cc2)oc2cc(N(C)S(C)(=O)=O)c(OCc3cccc(OC)c3)cc12 [Example 325, 2-(4-Fluoro-phenyl)-6-(methanesulfonyl-methyl-amino)-5-(3-methoxy-benzyloxy)-benzofuran-3-carboxylic acid methylamide] | ≤ 500 | < 1000 | –
CNC(=O)c1c(-c2ccc(F)cc2)oc2cc(N(CC(C)C)S(C)(=O)=O)c(O)cc12 [Example 326, 2-(4-Fluoro-phenyl)-5-hydroxy-6-(isobutyl-methanesulfonyl-amino)-benzofuran-3-carboxylic acid methylamide] | 500 to 5000 | < 30000 | –
CNC(=O)c1c(-c2ccc(F)cc2)oc2cc(N(C)S(C)(=O)=O)c(OCc3ccc(OC)cc3)cc12 [Example 327, 2-(4-Fluoro-phenyl)-6-(methanesulfonyl-methyl-amino)-5-(4-methoxy-benzyloxy)-benzofuran-3-carboxylic acid methylamide] | ≤ 500 | < 1000 | –
CNC(=O)c1c(-c2ccc(F)cc2)oc2cc(N(C)S(C)(=O)=O)c(OCc3ccncc3)cc12 [Example 328, 2-(4-Fluoro-phenyl)-6-(methanesulfonyl-methyl-amino)-5-(pyridin-4-ylmethoxy)-benzofuran-3-carboxylic acid methylamide] | ≤ 500 | < 1000 | –
CNC(=O)c1c(-c2ccc(F)cc2)oc2cc(N(C)S(C)(=O)=O)c(OCc3ccc4c(c3)C(=O)OC(C)(C)O4)cc12 [Example 329, 5-(2,2-Dimethyl-4-oxo-4H-benzo[1,3]dioxin-6-ylmethoxy)-2-(4-fluoro-phenyl)-6-(methanesulfonyl-methyl-amino)-benzofuran-3-carboxylic acid methylamide] | ≤ 500 | < 1000 | –
CNC(=O)c1c(-c2ccc(F)cc2)oc2cc(N(CC3CC3)S(C)(=O)=O)c(OC)cc12 [Example 330, 6-(Cyclopropylmethyl-methanesulfonyl-amino)-2-(4-fluoro-phenyl)-5-methoxy-benzofuran-3-carboxylic acid methylamide] | ≤ 500 | < 1000 | –
CNC(=O)CN(c1cc2oc(-c3ccc(F)cc3)c(C(=O)NC)c2cc1OC)S(C)(=O)=O [Example 331, 2-(4-Fluoro-phenyl)-6-(methanesulfonyl-methylcarbamoylmethyl-amino)-5-methoxy-benzofuran-3-carboxylic acid methylamide] | – | < 1000 | ≤ 500
CNC(=O)c1c(-c2ccc(F)cc2)oc2cc(NS(C)(=O)=O)c(F)cc12 [Example 332, 5-Fluoro-2-(4-fluoro-phenyl)-6-methanesulfonylamino-benzofuran-3-carboxylic acid methylamide] | – | < 10000 | 500 to 5000
CCN(c1cc2oc(-c3ccc(F)cc3)c(C(=O)NC)c2cc1F)S(C)(=O)=O [Example 333, 6-(Ethyl-methanesulfonyl-amino)-5-fluoro-2-(4-fluoro-phenyl)-benzofuran-3-carboxylic acid methylamide] | – | < 10000 | ≤ 500
CNC(=O)c1c(-c2ccc(F)cc2)oc2cc(C3CCN(S(C)(=O)=O)C3)c(OC)cc12 (centres unmarked) [Example 334, 2-(4-Fluoro-phenyl)-6-(1-methanesulfonyl-pyrrolidin-3-yl)-5-methoxy-benzofuran-3-carboxylic acid methylamide] | – | < 1000 | ≤ 500
CCc1cc2c(C(=O)NC)c(-c3ccc(F)cc3)oc2cc1N(CCOC)S(C)(=O)=O [Example 335, 5-Ethyl-2-(4-fluoro-phenyl)-6-[methanesulfonyl-(2-methoxy-ethyl)-amino]-benzofuran-3-carboxylic acid methylamide] | – | < 1000 | ≤ 500
